Test results from ChEMBL document CHEMBL4052645, “Discovery of potent and efficacious pyrrolopyridazines as dual JAK1/3 inhibitors” (Bioorg Med Chem Lett, 2017).

Legend:
[1] = molecular target: Tyrosine-protein kinase JAK2 (Homo sapiens, UniProt O60674); assay: Inhibition of GST-tagged JAK2 (unknown origin) after 3 hrs by Caliper assay
[2] = molecular target: Serine/threonine-protein kinase N1 (Homo sapiens) (UniProt Q16512); assay: Inhibition of human PKN1 (E598 to C948 residues) expressed in bacterial expression system assessed as residual activity at 50 nM by KINOMEscan assay relative to control
Chain of Serine/threonine-protein kinase N1 (Homo sapiens) (Q16512 2-942 limits assumed): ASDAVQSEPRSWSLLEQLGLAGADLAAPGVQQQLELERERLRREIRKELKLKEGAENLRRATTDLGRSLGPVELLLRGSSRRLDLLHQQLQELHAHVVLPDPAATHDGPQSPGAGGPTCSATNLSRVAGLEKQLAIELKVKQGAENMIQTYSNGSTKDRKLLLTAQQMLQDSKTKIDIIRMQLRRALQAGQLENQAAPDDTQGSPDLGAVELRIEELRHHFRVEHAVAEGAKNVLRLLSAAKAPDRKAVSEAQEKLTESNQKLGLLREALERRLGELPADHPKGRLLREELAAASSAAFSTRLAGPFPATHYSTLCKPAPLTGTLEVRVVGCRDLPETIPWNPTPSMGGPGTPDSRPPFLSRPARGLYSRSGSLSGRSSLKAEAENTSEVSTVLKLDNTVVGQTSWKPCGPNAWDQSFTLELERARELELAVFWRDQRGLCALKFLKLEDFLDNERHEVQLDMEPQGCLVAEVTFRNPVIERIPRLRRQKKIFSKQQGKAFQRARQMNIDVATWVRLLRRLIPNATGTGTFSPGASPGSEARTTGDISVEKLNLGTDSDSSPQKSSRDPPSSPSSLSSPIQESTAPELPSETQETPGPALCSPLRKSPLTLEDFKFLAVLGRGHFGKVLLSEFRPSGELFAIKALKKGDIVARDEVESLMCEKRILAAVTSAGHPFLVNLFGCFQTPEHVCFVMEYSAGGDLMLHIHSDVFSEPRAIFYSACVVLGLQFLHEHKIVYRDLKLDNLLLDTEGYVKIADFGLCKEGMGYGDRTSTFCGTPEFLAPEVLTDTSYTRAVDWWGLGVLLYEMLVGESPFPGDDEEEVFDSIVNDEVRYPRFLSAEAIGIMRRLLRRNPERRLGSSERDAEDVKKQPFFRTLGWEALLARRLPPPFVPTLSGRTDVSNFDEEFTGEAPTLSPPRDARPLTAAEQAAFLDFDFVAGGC

[3] = molecular target: Aurora kinase C (Homo sapiens) (UniProt Q9UQB9); assay: Inhibition of wild-type human full length AURC (M1 to S275 residues) expressed in bacterial expression system assessed as residual activity at 50 nM by Kinomescan method relative to control
[4] = molecular target: Muscle, skeletal receptor tyrosine-protein kinase (Homo sapiens) (UniProt O15146); assay: Inhibition of wild-type human partial length MUSK (M553 to V869 residues) expressed in bacterial expression system assessed as residual activity at 50 nM by Kinomescan method relative to control
[5] = molecular target: Serine/threonine-protein kinase PAK 3 (Homo sapiens) (UniProt O75914); assay: Inhibition of wild-type human full length PAK3 (M1 to R544 residues) expressed in bacterial expression system assessed as residual activity at 50 nM by Kinomescan method relative to control
Chain of Serine/threonine-protein kinase PAK 3 (Homo sapiens) (O75914 whole entry, looked up, the tested form may be a part): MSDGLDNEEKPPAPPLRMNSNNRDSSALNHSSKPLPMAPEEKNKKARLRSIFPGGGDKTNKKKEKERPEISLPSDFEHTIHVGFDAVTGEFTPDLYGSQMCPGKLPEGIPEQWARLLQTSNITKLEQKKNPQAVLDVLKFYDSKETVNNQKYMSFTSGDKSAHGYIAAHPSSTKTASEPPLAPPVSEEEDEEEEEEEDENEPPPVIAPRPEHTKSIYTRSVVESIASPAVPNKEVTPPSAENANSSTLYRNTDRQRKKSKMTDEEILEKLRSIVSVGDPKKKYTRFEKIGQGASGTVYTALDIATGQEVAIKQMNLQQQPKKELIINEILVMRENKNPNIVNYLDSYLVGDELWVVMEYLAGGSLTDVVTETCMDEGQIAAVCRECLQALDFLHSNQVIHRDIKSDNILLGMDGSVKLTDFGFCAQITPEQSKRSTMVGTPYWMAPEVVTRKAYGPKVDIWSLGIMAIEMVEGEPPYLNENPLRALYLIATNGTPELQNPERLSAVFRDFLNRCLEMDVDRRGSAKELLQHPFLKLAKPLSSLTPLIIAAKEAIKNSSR

[6] = molecular target: Serine/threonine-protein kinase Sgk3 (Homo sapiens) (UniProt Q96BR1); assay: Inhibition of wild-type human partial length SGK3 (M119 to L496 residues) expressed in mammalian expression system assessed as residual activity at 50 nM by Kinomescan method relative to control
Chain of Serine/threonine-protein kinase Sgk3 (Homo sapiens) (Q96BR1 whole entry, the tested form may be a part): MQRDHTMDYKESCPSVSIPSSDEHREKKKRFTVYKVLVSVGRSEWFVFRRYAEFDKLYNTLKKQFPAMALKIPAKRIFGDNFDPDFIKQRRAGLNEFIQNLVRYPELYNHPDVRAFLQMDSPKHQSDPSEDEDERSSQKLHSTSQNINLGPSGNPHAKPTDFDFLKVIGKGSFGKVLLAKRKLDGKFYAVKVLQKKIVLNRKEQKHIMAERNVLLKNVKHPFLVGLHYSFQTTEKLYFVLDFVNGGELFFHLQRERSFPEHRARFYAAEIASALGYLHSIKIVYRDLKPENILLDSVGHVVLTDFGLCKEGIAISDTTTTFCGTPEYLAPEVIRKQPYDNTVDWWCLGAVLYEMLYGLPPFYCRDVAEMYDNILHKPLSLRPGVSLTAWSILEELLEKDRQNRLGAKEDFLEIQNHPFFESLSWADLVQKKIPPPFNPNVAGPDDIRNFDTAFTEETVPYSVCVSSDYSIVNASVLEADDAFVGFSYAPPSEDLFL

[7] = molecular target: Interleukin-1 receptor-associated kinase 3 (Homo sapiens) (UniProt Q9Y616); assay: Inhibition of wild-type human partial length IRAK3 (V147 to E596 residues) expressed in bacterial expression system assessed as residual activity at 50 nM by Kinomescan method relative to control
[8] = molecular target: Tyrosine-protein kinase ZAP-70 (Homo sapiens) (UniProt P43403); assay: Inhibition of wild-type human partial length ZAP70 (D20 to G299 residues) expressed in mammalian expression system assessed as residual activity at 50 nM by Kinomescan method relative to control
Chain of Tyrosine-protein kinase ZAP-70 (Homo sapiens) (P43403 whole entry, the tested form may be a part): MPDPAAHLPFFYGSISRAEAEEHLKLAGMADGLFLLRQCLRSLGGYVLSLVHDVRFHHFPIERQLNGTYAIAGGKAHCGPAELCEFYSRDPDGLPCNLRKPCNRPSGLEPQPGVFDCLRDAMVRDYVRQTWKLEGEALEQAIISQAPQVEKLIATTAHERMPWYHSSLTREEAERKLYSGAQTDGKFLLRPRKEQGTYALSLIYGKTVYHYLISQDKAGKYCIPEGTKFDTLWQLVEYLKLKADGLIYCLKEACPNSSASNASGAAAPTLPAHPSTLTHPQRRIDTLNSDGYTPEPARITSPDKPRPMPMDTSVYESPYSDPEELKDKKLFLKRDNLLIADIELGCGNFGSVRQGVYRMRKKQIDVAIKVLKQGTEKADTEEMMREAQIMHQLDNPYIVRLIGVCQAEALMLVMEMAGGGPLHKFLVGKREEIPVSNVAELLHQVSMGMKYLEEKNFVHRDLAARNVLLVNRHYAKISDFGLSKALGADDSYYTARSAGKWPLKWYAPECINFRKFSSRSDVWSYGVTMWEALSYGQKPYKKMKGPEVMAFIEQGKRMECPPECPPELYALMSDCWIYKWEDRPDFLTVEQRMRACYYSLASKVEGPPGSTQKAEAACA

[9] = molecular target: Ephrin type-A receptor 1 (Homo sapiens) (UniProt P21709); assay: Inhibition of wild-type human partial length EPHA1 (V588 to I913 residues) expressed in bacterial expression system assessed as residual activity at 50 nM by Kinomescan method relative to control
[10] = molecular target: Dual specificity mitogen-activated protein kinase kinase 1 (Homo sapiens) (UniProt Q02750); assay: Inhibition of wild-type human full length MAP2K1 (M1 to V393 residues) expressed in mammalian expression system assessed as residual activity at 50 nM by Kinomescan method relative to control
[11] = molecular target: Calcium/calmodulin-dependent protein kinase kinase 2 (Homo sapiens) (UniProt Q96RR4); assay: Inhibition of wild-type human partial length CAMKK2 (D65 to V471 residues) expressed in bacterial expression system assessed as residual activity at 50 nM by Kinomescan method relative to control
[12] = molecular target: Myosin-IIIa (Homo sapiens) (UniProt Q8NEV4); assay: Inhibition of wild-type human partial length MYO3A (M1 to K338 residues) expressed in bacterial expression system assessed as residual activity at 50 nM by Kinomescan method relative to control
Chain of Myosin-IIIa (Homo sapiens) (Q8NEV4 whole entry, the tested form may be a part): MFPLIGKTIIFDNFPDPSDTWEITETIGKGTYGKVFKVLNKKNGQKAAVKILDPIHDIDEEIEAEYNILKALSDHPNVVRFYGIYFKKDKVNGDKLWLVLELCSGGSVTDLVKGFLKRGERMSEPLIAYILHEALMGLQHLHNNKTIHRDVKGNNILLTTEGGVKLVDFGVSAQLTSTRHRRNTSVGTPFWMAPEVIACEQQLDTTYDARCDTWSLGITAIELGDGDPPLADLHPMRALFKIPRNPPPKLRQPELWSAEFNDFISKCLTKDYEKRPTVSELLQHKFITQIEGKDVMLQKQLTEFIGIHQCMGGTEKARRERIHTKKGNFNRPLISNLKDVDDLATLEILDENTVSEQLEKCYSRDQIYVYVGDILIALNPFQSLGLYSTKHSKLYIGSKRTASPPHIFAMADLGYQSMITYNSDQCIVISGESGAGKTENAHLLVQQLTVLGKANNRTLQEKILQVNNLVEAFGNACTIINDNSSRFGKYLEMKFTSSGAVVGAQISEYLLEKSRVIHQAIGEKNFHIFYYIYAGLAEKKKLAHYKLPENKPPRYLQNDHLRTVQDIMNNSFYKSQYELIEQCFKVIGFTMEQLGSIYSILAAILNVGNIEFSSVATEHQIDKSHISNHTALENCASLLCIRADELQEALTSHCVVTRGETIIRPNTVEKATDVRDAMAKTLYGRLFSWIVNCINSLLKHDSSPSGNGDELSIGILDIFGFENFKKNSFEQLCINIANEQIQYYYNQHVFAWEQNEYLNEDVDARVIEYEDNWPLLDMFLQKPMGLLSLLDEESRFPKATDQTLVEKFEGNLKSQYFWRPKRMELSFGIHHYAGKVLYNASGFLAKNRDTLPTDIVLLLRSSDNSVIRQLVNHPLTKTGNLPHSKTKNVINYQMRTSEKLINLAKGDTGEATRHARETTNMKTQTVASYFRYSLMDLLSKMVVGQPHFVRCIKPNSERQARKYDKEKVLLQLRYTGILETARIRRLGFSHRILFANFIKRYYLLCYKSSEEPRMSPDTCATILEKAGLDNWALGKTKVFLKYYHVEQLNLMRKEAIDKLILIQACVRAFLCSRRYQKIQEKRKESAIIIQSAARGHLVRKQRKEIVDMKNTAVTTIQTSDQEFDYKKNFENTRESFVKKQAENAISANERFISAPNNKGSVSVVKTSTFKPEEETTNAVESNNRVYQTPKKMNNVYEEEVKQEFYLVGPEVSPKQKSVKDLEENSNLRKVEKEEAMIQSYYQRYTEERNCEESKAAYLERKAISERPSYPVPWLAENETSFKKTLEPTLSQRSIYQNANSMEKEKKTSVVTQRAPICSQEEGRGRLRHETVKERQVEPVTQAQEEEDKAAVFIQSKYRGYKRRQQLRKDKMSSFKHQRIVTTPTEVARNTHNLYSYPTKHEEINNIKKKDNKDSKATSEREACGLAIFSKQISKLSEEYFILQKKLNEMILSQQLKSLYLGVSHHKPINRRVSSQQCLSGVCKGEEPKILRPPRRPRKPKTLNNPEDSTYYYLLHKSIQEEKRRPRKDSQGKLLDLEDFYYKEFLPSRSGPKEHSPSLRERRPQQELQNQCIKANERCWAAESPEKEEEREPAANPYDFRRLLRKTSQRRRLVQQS

[13] = molecular target: Angiopoietin-1 receptor (Homo sapiens) (UniProt Q02763); assay: Inhibition of wild-type human partial length TIE2 (N804 to T1112 residues) expressed in bacterial expression system assessed as residual activity at 50 nM by Kinomescan method relative to control
[14] = molecular target: Fibroblast growth factor receptor 4 (Homo sapiens) (UniProt P22455); assay: Inhibition of wild-type human partial length FGFR4 (G402 to E713 residues) expressed in bacterial expression system assessed as residual activity at 50 nM by Kinomescan method relative to control
[15] = molecular target: Calcium/calmodulin-dependent protein kinase type II subunit gamma (Homo sapiens) (UniProt Q13555); assay: Inhibition of wild-type human partial length CAMK2G (R9 to A303 residues) expressed in bacterial expression system assessed as residual activity at 50 nM by Kinomescan method relative to control
[16] = molecular target: Calcium/calmodulin-dependent protein kinase kinase 1 (Homo sapiens) (UniProt Q8N5S9); assay: Inhibition of wild-type human partial length CAMKK1 (R65 to E414 residues) expressed in bacterial expression system assessed as residual activity at 50 nM by Kinomescan method relative to control
[17] = molecular target: Ribosomal protein S6 kinase alpha-5 (Homo sapiens) (UniProt O75582); assay: Inhibition of wild-type human partial length C-terminal MSK1 kinase domain 2 (V390 to T718 residues) expressed in bacterial expression system assessed as residual activity at 50 nM by Kinomescan method relative to control
[18] = molecular target: Ribosomal protein S6 kinase beta-1 (Homo sapiens) (UniProt P23443); assay: Inhibition of wild-type human partial length P70S6K (M1 to S421 residues) expressed in mammalian expression system assessed as residual activity at 50 nM by Kinomescan method relative to control
[19] = molecular target: Tyrosine-protein kinase BTK (Homo sapiens) (UniProt Q06187); assay: Inhibition of wild-type human full length BTK (M1 to S659 residues) expressed in mammalian expression system assessed as residual activity at 50 nM by Kinomescan method relative to control
[20] = molecular target: Ephrin type-A receptor 4 (Homo sapiens) (UniProt P54764); assay: Inhibition of wild-type human partial length EPHA4 (T601 to R897 residues) expressed in bacterial expression system assessed as residual activity at 50 nM by Kinomescan method relative to control
[21] = molecular target: Ephrin type-B receptor 3 (Homo sapiens) (UniProt P54753); assay: Inhibition of wild-type human partial length EPHB3 (Q599 to T928 residues) expressed in bacterial expression system assessed as residual activity at 50 nM by Kinomescan method relative to control
[22] = molecular target: Interleukin-1 receptor-associated kinase 4 (Homo sapiens) (UniProt Q9NWZ3); assay: Inhibition of wild-type human partial length IRAK4 (M1 to S460 residues) expressed in mammalian expression system assessed as residual activity at 50 nM by Kinomescan method relative to control
[23] = molecular target: Cyclin-dependent kinase 15 (Homo sapiens) (UniProt Q96Q40); assay: Inhibition of wild-type human full length PFTAIRE2 (M1 to W384 residues) expressed in bacterial expression system assessed as residual activity at 50 nM by Kinomescan method relative to control
[24] = molecular target: Phosphatidylinositol 3-kinase C2 domain-containing subunit gamma (Homo sapiens) (UniProt O75747); assay: Inhibition of wild-type human partial length PI3KC2G (M1 to I1446 residues) expressed in mammalian expression system assessed as residual activity at 50 nM by Kinomescan method relative to control
[25] = molecular target: Dual specificity protein kinase TTK (Homo sapiens) (UniProt P33981); assay: Inhibition of wild-type human partial length TTK (N505 to V798 residues) expressed in bacterial expression system assessed as residual activity at 50 nM by Kinomescan method relative to control
Chain of Dual specificity protein kinase TTK (Homo sapiens) (P33981 whole entry, the tested form may be a part): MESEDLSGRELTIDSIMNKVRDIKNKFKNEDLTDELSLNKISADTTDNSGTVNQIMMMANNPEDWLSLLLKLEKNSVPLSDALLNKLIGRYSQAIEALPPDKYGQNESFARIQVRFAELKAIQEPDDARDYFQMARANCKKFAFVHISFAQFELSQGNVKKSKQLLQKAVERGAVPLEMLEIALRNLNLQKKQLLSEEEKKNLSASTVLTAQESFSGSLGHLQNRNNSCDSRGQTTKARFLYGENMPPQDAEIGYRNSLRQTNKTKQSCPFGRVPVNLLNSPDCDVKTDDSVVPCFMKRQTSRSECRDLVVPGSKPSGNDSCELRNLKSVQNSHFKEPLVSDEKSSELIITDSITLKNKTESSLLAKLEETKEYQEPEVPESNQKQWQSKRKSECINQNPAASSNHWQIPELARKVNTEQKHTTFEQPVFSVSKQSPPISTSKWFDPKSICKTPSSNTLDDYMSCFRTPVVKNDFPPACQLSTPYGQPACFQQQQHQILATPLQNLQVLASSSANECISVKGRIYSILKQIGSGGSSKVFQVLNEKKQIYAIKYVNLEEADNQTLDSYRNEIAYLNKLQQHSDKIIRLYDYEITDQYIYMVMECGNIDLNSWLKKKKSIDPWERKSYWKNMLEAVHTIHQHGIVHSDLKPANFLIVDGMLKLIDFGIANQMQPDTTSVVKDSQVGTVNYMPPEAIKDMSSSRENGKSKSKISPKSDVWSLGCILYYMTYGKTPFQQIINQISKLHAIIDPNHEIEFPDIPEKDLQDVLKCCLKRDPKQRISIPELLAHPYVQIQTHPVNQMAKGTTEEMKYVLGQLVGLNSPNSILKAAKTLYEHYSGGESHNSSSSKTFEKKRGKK

Compound	IC50 [1] [nM]	Activity [2] [%]	Activity [3] [%]	Activity [4] [%]	Activity [5] [%]	Activity [6] [%]	Activity [7] [%]	Activity [8] [%]	Activity [9] [%]	Activity [10] [%]	Activity [11] [%]	Activity [12] [%]	Activity [13] [%]	Activity [14] [%]	Activity [15] [%]	Activity [16] [%]	Activity [17] [%]	Activity [18] [%]	Activity [19] [%]	Activity [20] [%]	also measured
COc1ccc(-c2cc3c(N[C@@H]4CC[C@](C)(N)C4(C)C)c(C(N)=O)cnn3c2)cn1	15	7	82	90	64	84	100	92	93	94	64	94	100	91	90	100	100	97	100	100	Activity [21]: 100%; Activity [22]: 100%; Activity [23]: 90%; Activity [24]: 100%; Activity [25]: 81%
CC1(C)[C@H](Nc2c(C(N)=O)cnn3cc(-c4ccccc4)cc23)CC[C@]1(C)N	9	0.3	42	43	53	56	66	79	80	80	83	87	87	88	91	92	95	96	99	100	Activity [21]: 100%; Activity [22]: 100%; Activity [23]: 100%; Activity [24]: 100%; Activity [25]: 100%
